Data: ChEMBL document CHEMBL4396876, “Antisulfatase, Osteogenic, and Anticancer Activities of Steroid Sulfatase Inhibitor EO-33 in Mice” (J Med Chem, 2019)

Experiment: Toxicity in nu/nu Br athymic mouse xenografted with human E2S-stimulated MCF7 cells assessed as whitish deposit at injection site at 30 mg/kg, sc administered 6 days per week for 28 days using MC/EtOH formulation by TLC analysis
Conditions: in vivo

Cc1ccc(CN(Cc2ccc(C(=O)N3CCc4ccc(OS(N)(=O)=O)cc4C3)cc2)Cc2ccco2)s1
Activity: Toxic
